Laboratory results from ChEMBL document CHEMBL4715758, “Hit-to-Lead Optimization of a Novel Class of Potent, Broad-Spectrum Trypanosomacides” (J Med Chem, 2016).
Converted amounts (≈) assume the structure as drawn. The source made the active and inactive calls. The rule behind the calls is not given here.

What was measured:
[1] = Metabolic stability in human liver microsomes assessed as half-life measured after 60 mins in presence of NADPH generating system by LC-MS analysis; format: ADME, Microsome
[2] = Selectivity index, ratio of IC50 for cytotoxicity against rat H9c2 cells assessed as reduction in cell viability to IC50 for antitrypanosomal against Trypanosoma cruzi Tulahuen trypomastigotes infected in rat H9c2 cells; format: toxicity, cell-based; conditions: read-out: Ratio IC50
[3] = Intrinsic clearance in human liver microsomes assessed per mg protein measured after 60 mins in presence of NADPH generating system by LC-MS analysis; format: ADME, Microsome; conditions: read-out: CLH
Trypanosoma cruzi [4] = assay: Antitrypanosomal activity against Trypanosoma cruzi Tulahuen strain trypomastigotes infected in rat H9c2 cells incubated for 72 hrs by DRAQ5 DNA dye based imaging analysis; format: functional, organism-based; conditions: H9c2, 72 h
[5] = Metabolic stability in mouse liver microsomes assessed as degradation half-life measured after 60 mins in presence of NADPH generating system by LC-MS analysis; format: ADME, Microsome; conditions: read-out: T50
[6] = test system: Trypanosoma brucei brucei; assay: Antitrypanosomal activity against Trypanosoma brucei brucei Lister 427 strain blood stream forms incubated for 48 hrs by resazurin dye based fluorescence assay; format: functional, organism-based; conditions: Lister 427, 48 h
[7] = Metabolic stability in human liver microsomes assessed as degradation half-life measured after 60 mins in presence of NADPH generating system by LC-MS analysis; format: ADME, Microsome; conditions: read-out: T50
[8] = Intrinsic clearance in mouse liver microsomes assessed per mg protein measured after 60 mins in presence of NADPH generating system by LC-MS analysis; format: ADME, Microsome; conditions: read-out: CLH
[9] = Selectivity index, ratio of IC50 for cytotoxicity against human HEK293 cells assessed as reduction in cell viability to IC50 for antitrypanosomal activity against Trypanosoma brucei brucei Lister 427 blood stream form; format: toxicity, cell-based; conditions: read-out: Ratio IC50
[10] = Kinetic solubility of compound at pH 2 by nephelometry; format: physicochemical; conditions: buffer, read-out: Kinetic_solubility
Trypanosoma cruzi [11] = assay: Inhibition of Trypanosoma cruzi Tulahuen C4 CYP51 expressed in Escherichia coli JM109 using BOMCC as substrate in presence of NADPH by fluorescence assay
[12] = Kinetic solubility of compound at pH 6.5 phosphate buffer by nephelometry; format: physicochemical; conditions: read-out: Kinetic_solubility
Trypanosoma cruzi [13] = assay: Antitrypanosomal activity against Trypanosoma cruzi infected in vero cells assessed as minimum concentration required for parasite growth inhibition incubated from 24 to 96 hrs by time kill assay; format: functional; conditions: time 24-96 hrs, read-out: MEC
Trypanosoma cruzi [14] = assay: Antitrypanosomal activity against Trypanosoma cruzi infected in vero cells assessed as reduction in parasite growth inhibition incubated for 96 hrs by time kill assay relative to nifurtimox; format: functional
[15] = Partition coefficient, log D of compound at pH 7.4 by HPLC; format: physicochemical; conditions: octanol/water
Vero = assay: Cytotoxicity against African green monkey Vero cells assessed as reduction in cell viability; format: cell-based; conditions: chlorocebus sabaeus
Trypanosoma cruzi [16] = assay: Antitrypanosomal activity against Trypanosoma cruzi infected in vero cells assessed as parasite growth inhibition incubated from 24 to 96 hrs by time kill assay; format: functional, organism-based
[17] = Protein binding in human plasma by HPLC-MS analysis; format: ADME, cell-free; conditions: read-out: PPB (converted)
Plasmodium falciparum = assay: Antiplasmodial activity against chloroquine and pyrimethamine resistant erythrocytic stage of Plasmodium falciparum K1 strain assessed as reduction in [3H]hypoxanthine incorporation measured after 48 hrs by liquid scintillation counting method; format: functional, organism-based
Trypanosoma cruzi [18] = assay: Antitrypanosomal activity against Trypanosoma cruzi Tulahuen C4 strain amastigotes infected in rat L6 cells measured after 96 hrs by inverted microscopy analysis; format: functional, organism-based; conditions: Tulahuen C4, L6, 96 h
Leishmania donovani = assay: Antileishmanial activity against Leishmania donovani MHOM/ET/67/L82 amastigotes measured after 72 hrs by alamar blue dye based fluorimetry analysis; format: functional, organism-based; conditions: MHOM/ET/67/L82, 72 h
L6 = assay: Cytotoxicity against rat L6 cells assessed as reduction in cell viability measured after 72 hrs by alamar blue dye based fluorimetry analysis; conditions: L6, 72 h
[19] = test system: Trypanosoma brucei rhodesiense; assay: Antitrypanosomal activity against Trypanosoma brucei rhodesiense STIB900 trypomastigotes incubated for 72 hrs by resazurin dye based fluorescence assay; format: functional, organism-based; conditions: STIB900, 72 h
[20] = Drug metabolism in human liver microsomes assessed as oxidative dealkylation by measuring 2-(2-phenylthiazol-4-yl)-ethanol formation in presence of NADPH measured after 60 mins by LC-MS analysis; format: ADME, Microsome; conditions: 1 h
[21] = Metabolic stability in human liver microsome assessed as compound degradation measured over 60 mins in absence of cofactor by LC-MS analysis; format: ADME; conditions: liver microsomes, read-out: Drug degradation
[22] = Drug metabolism in human liver microsomes assessed as 2-(2-phenylthiazol-4-yl)-ethanol metabolite formation in presence of NADPH and UDPGA measured after 60 mins by LC-MS analysis; format: ADME, Microsome; conditions: 1 h
[23] = Drug metabolism in human liver microsomes assessed as hydroxylation by measuring 3-fluoro-N-(2-(2-(4-hydroxyphenyl)thiazol-4-yl)ethyl)benzamide formation in presence of NADPH measured after 60 mins by LC-MS analysis; format: ADME, Microsome; conditions: 1 h
[24] = Drug metabolism in human liver microsomes assessed as N-(2-(4-(2,4-difluorophenyl)thiazol-2-yl)ethyl)piperidine-1-carboxamide metabolite formation in presence of NADPH and UDPGA measured after 60 mins by LC-MS analysis; format: ADME, Microsome; conditions: 1 h
[25] = Drug metabolism in human liver microsomes assessed as hydroxylation by measuring 3-fluoro-N-(2-hydroxy-2-(2-phenylthiazol-4-yl)ethyl)benzamide formation in presence of NADPH measured after 60 mins by LC-MS analysis; format: ADME, Microsome; conditions: 1 h
[26] = Drug metabolism in human liver microsomes assessed as secondary hydroxylation by measuring N-(2-(4-(2,4-difluorophenyl)thiazol-2-yl)ethyl)piperidine-1-carboxamide metabolite formation in presence of NADPH measured after 60 mins by LC-MS analysis; format: ADME, Microsome; conditions: 1 h

SMILES: CCN(CC)C(=O)NCCc1csc(-c2ccc(F)cc2F)n1
- half-life [1]: 8 min
- selectivity ratio [2]: > 199
- microsomal CLint [3]: 177 µL/min/mg
- IC50 (Trypanosoma cruzi [4]): 250 nM

SMILES: O=C(NCCc1csc(-c2cccc(F)c2)n1)N1CCCCC1
- half-life [5]: < 2 min
- IC50 [6]: 26 nM
- half-life [7]: 4 min
- microsomal CLint [8]: > 1600 µL/min/mg
- selectivity ratio [9]: 398
- microsomal CLint [3]: 445 µL/min/mg

SMILES: Cc1ccoc1C(=O)NCCc1csc(-c2ccccc2)n1
- solubility kinetic [10]: 6 µg/mL (≈ 19.2 µM)
- inhibition (Trypanosoma cruzi [11]): inactive
- solubility kinetic [12]: 6 µg/mL (≈ 19.2 µM)
- minimal effective concentration (Trypanosoma cruzi [13]): 0.6 µM
- Imax (Trypanosoma cruzi [14]): 104%
- logD [15]: 3.5
- IC50 [6]: 130 nM
- Activity (Vero): 50 µM
- selectivity ratio [9]: 666
- IC50 (Trypanosoma cruzi [16]): 600 nM
- fraction unbound [17]: 0.05

SMILES: O=C(NCCc1csc(-c2ccccc2)n1)c1ccccn1
- IC50 (Plasmodium falciparum): 65000 nM
- IC50 (Trypanosoma cruzi [18]): 900 nM
- IC50 (Leishmania donovani): 12000 nM
- IC50 [6]: 300 nM
- selectivity ratio [9]: 139
- IC50 (L6): 66000 nM
- IC50 [19]: 220 nM

SMILES: O=C(NCCc1csc(-c2ccccc2)n1)N1CCCCC1
- solubility kinetic [10]: 50 µg/mL (≈ 159 µM)
- solubility kinetic [12]: 25 µg/mL (≈ 79.3 µM)
- logD [15]: 3.2
- half-life [7]: 7 min
- microsomal CLint [3]: 244 µL/min/mg
- fraction unbound [17]: 0.1
- IC50 (Trypanosoma cruzi [4]): 39 nM

SMILES: O=C(NCCc1csc(-c2ccc(F)cc2)n1)N1CCCCC1
- half-life [5]: < 2 min
- IC50 [6]: 24 nM
- half-life [7]: 11 min
- microsomal CLint [8]: > 1600 µL/min/mg
- selectivity ratio [2]: > 1580
- selectivity ratio [9]: 431
- microsomal CLint [3]: 160 µL/min/mg
- IC50 (Trypanosoma cruzi [4]): 30 nM

SMILES: O=C(NCCc1csc(-c2ccccc2)n1)c1cccc(F)c1
- IC50 (Plasmodium falciparum): 41000 nM
- IC50 (Trypanosoma cruzi [18]): 200 nM
- solubility kinetic [10]: 6 µg/mL (≈ 18.4 µM)
- Drug metabolism [20]: Metabolite_Detected
- metabolised at 1 h [21]: 14%
- inhibition (Trypanosoma cruzi [11]): inactive
- Drug metabolism [22]: Metabolite_Detected
- Imax (Trypanosoma cruzi [14]): 106%
- IC50 (Leishmania donovani): 10000 nM
- logD [15]: 3.6
- Drug metabolism [23]: Metabolite_Detected
- Activity (Vero): 17 µM
- half-life [7]: 4 min
- microsomal CLint [3]: 484 µL/min/mg
- Drug metabolism [24]: Metabolite_Detected
- Drug metabolism [25]: Metabolite_Detected
- IC50 (L6): 51000 nM
- IC50 (Trypanosoma cruzi [16]): 400 nM
- Drug metabolism [26]: Metabolite_Detected
- fraction unbound [17]: 0.04
- IC50 (Trypanosoma cruzi [4]): 500 nM
